Data reported in patent US10668055B2, “Cancer treatment using combinations of ERK and RAF inhibitors” (BIOMED VALLEY DISCOVERIES, INC., priority 2013, dated 2020).
pIC50: −log10 of the molar value. Read-outs that look alike come from different tables or passages of the source.

What was measured:
G-361 = test: Single agent proliferation assay (CellTiter-Glo, 72 h); type: cell-based; settings: Homo sapiens, G-361, 72 h
Experimental: (§1) Cells were seeded in 96-well plates at the densities and media conditions indicated in Table 17 and allowed to adhere overnight prior to addition of compound or vehicle control. Compounds were prepared from DMSO stocks to give the desired final concentrations. The final DMSO concentration was constant at 0.1%. Test compounds were incubated with the cells for 72 h at 37° C., 5% CO2 in a humidified atmosphere. CellTiter-Glo® reagent (Promega, Madison, Wis.) was added according to manufacturer's instructions and luminescence detected using the BMG FLUOstar plate reader (BMG Labtech, Ortenberg, Germany). The average media only background value was deducted and the data analysed using a 4-parameter logistic equation in GraphPad Prism (GraphPad Software, La Jolla, Calif.).

A375 = test: as above; type: cell-based, human; settings: Homo sapiens, A-375; A375, 72 h
Experimental: as §1

A375 cells [1] = test: Proliferation assay (Alamar Blue, 96 hours) on parental and dose-escalated A375 cell lines; settings: Homo sapiens
Experimental: (§2) Cancer cell lines were maintained in cell culture under standard media and serum conditions. For dose escalation studies, A375 cells were split, grown to about 40-60% confluence, and then treated with the initial dose of the specified drug.
(§3) Proliferation assays were used to track changes in sensitivity to the escalated agent(s) at appropriate time intervals (e.g. each month, although the timing is dependent on adequate cell numbers being available). For proliferation assays, cells were seeded in 96-well plates at 3000 cells per well in drug-free DMEM medium containing 10% FBS and allowed to adhere overnight prior to addition of compound or vehicle control. […] Test compounds were incubated with the cells for 96 hours at 37° C. and 5% CO2 in a humidified atmosphere. Alamar Blue 10% (v/v) was then added and incubated for 4 hours and fluorescent product was detected using a BMG FLUOstar plate reader. The average media only background value was deducted and the data analyzed using a 4-parameter logistic equation in GraphPad Prism. Paclitaxel was used as a positive control.

A375 cells [2] = tested on: A375 cells
Experimental: as §2, §3

## CC(=O)O[C@H]1C(=O)[C@@]2(C)[C@H]([C@H](OC(=O)c3ccccc3)[C@]3(O)C[C@H](OC(=O)[C@H](O)[C@@H](NC(=O)c4ccccc4)c4ccccc4)C(C)=C1C3(C)C)[C@]1(OC(C)=O)CO[C@@H]1C[C@@H]2O [Paclitaxel]
G-361
  pIC50: 8.15
A375
  pIC50: 8.30
A375 cells [1]; A-375, read-out: Relative IC50, Month 1, Par = Parental cell line
  pIC50: 8.66
A375 cells [1]; A-375, read-out: Relative IC50, Month 1, cell line BVD-523 (0.48 μM)
  pIC50: 8.47
A375 cells [1]; A-375, read-out: Relative IC50, Month 1, cell line Dab (15 nM Dab)
  pIC50: 8.48
A375 cells [1]; A-375, read-out: Relative IC50, Month 1, cell line Dab/523 (7.5 nM/0.24 μM)
  pIC50: 8.47
A375 cells [1]; A-375, read-out: Relative IC50, Month 1, cell line Tram (growing in 2 nM Tram)
  pIC50: 8.52
A375 cells [1]; A-375, read-out: Relative IC50, Month 2, Par = Parental cell line
  pIC50: 8.43
A375 cells [1]; A-375, read-out: Relative IC50, Month 2, cell line BVD-523 (0.8 μM)
  pIC50: 8.19
A375 cells [1]; A-375, read-out: Relative IC50, Month 2, cell line Dab (127 nM Dab)
  pIC50: 8.72
A375 cells [1]; A-375, read-out: Relative IC50, Month 2, cell line Dab/523 (12.5 nM/0.4 μM)
  pIC50: 8.38
A375 cells [1]; A-375, read-out: Relative IC50, Month 2, cell line Tra (8 nM Tram)
  pIC50: 8.05
A375 cells [1]; A-375, read-out: Relative IC50, Month 3, Par = Parental cell line
  pIC50: 8.72
A375 cells [1]; A-375, read-out: Relative IC50, Month 3, cell line Dab (3.2 μM Dab)
  pIC50: 8.72
A375 cells [2]
  pIC50: 8.33
